Data as given in ChEMBL document CHEMBL1697781, “Assessment of the health effects of chemicals in humans: II. Construction of an adverse effects database for QSAR modeling” (Curr Drug Discov Technol, 2004).

Assays:
Conditions in all cases: human; call rule not given here
Hepatotoxicity [1] = assay: FDA HLAED, gamma-glutamyl transferase (GGT) increase
Hepatotoxicity [2] = assay: FDA HLAED, serum glutamic oxaloacetic transaminase (SGOT) increase
Hepatotoxicity [3] = assay: FDA HLAED, liver enzyme composite activity
Hepatotoxicity [4] = assay: FDA HLAED, serum glutamic pyruvic transaminase (SGPT) increase
Hepatotoxicity [5] = assay: FDA HLAED, lactate dehydrogenase (LDH) increase
Hepatotoxicity [6] = assay: FDA HLAED, alkaline phosphatase increase
For GGT Increase - Index Value in this document: reference of the scale not given here.
For LDH Increase - Index Value in this document: reference of the scale not given here.

Row | Compound | GGT Increase - Activity Score (Hepatotoxicity [1]) | GGT Increase - Index Value (Hepatotoxicity [1]) | GGT Increase - Number of Reports (Hepatotoxicity [1]) | SGOT Increase - Activity Score (Hepatotoxicity [2]) | SGOT Increase - Index Value (Hepatotoxicity [2]) | SGOT Increase - Number of Reports (Hepatotoxicity [2]) | Composite Activity - Active (Hepatotoxicity [3]) | Composite Activity - Marginal (Hepatotoxicity [3]) | Composite Activity - Score (Hepatotoxicity [3]) | SGPT Increase - Activity Score (Hepatotoxicity [4]) | SGPT Increase - Index Value (Hepatotoxicity [4]) | SGPT Increase - Number of Reports (Hepatotoxicity [4]) | LDH Increase - Activity Score (Hepatotoxicity [5]) | LDH Increase - Index Value (Hepatotoxicity [5]) | LDH Increase - Number of Reports (Hepatotoxicity [5]) | Alkaline Phosphatase Increase - Activity Score (Hepatotoxicity [6]) | Alkaline Phosphatase Increase - Index Value (Hepatotoxicity [6]) | Alkaline Phosphatase Increase - Number of Reports (Hepatotoxicity [6])
1 | CC(C)(C)NCC(O)COc1cccc2c1CCC(=O)N2 (stereo unspecified) [CARTEOLOL] | Inactive | 0 | < 4 | Inactive | 0.5 | < 4 | 0 | 0 | Inactive | Inactive | 0.5 | < 4 | Inactive | 0.5 | < 4 | Inactive | 0 | < 4
2 | COc1ccccc1OCCNCC(O)COc1cccc2[nH]c3ccccc3c12 (stereo unspecified) [CARVEDILOL] | Inactive | 0 | < 4 | Inactive | 0 | < 4 | 0 | 0 | Inactive | Inactive | 0 | < 4 | Inactive | 0 | < 4 | Inactive | 0 | < 4
3 | N[C@@H](C(=O)N[C@@H]1C(=O)N2C(C(=O)O)=C(Cl)CS[C@H]12)c1ccccc1 [CEFACLOR ANHYDROUS] | Inactive | 0 | < 4 | Active | 6 | >= 4 | 1 | 1 | Inactive | Inactive | 2.9 | >= 4 | Inactive | 0.4 | >= 4 | Marginally Active | 3.4 | >= 4
4 | CC1=C(C(=O)O)N2C(=O)[C@@H](NC(=O)[C@H](N)c3ccc(O)cc3)[C@H]2SC1 [CEFADROXIL] | Inactive | 0 | < 4 | Inactive | 0 | < 4 | 0 | 0 | Inactive | Inactive | 0 | < 4 | Inactive | 0 | < 4 | Inactive | 0 | < 4
5 | Cn1nnnc1SCC1=C(C(=O)[O-])N2C(=O)[C@@H](NC(=O)[C@H](OC=O)c3ccccc3)[C@H]2SC1.[Na+] [CEFAMANDOLE NAFATE] | Inactive | 0 | < 4 | Inactive | 0 | < 4 | 0 | 0 | Inactive | Inactive | 0 | < 4 | Inactive | 0 | < 4 | Inactive | 0 | < 4
6 | Cn1nnnc1SCC1=C(C(=O)O)N2C(=O)[C@@H](NC(=O)[C@H](O)c3ccccc3)[C@H]2SC1 [CEFAMANDOLE] | Inactive | 0 | < 4 | Inactive | 0 | < 4 | 0 | 0 | Inactive | Inactive | 0 | < 4 | Inactive | 0 | < 4 | Inactive | 0 | < 4
7 | C=CC1=C(C(=O)O)N2C(=O)[C@@H](NC(=O)/C(=N\OCC(=O)O)c3csc(N)n3)[C@H]2SC1 [CEFIXIME] | Inactive | 0 | < 4 | Inactive | 0.4 | >= 4 | 0 | 0 | Inactive | Inactive | 0.4 | >= 4 | Inactive | 0.1 | < 4 | Inactive | 13.7 | < 4
8 | CO[C@@]1(NC(=O)CSCC#N)C(=O)N2C(C(=O)O)=C(CSc3nnnn3C)CS[C@@H]21 [CEFMETAZOLE] | Inactive | 0 | < 4 | Inactive | 0 | < 4 | 0 | 0 | Inactive | Inactive | 0 | < 4 | Inactive | 25.5 | < 4 | Inactive | 0.1 | < 4
9 | O=C(O)C1=C(CSc2nnnn2CS(=O)(=O)O)CS[C@@H]2[C@H](NC(=O)[C@H](O)c3ccccc3)C(=O)N12 [CEFONICID] | Inactive | 0 | < 4 | Inactive | 0 | < 4 | 0 | 0 | Inactive | Inactive | 0 | < 4 | Inactive | 0 | < 4 | Inactive | 12.7 | < 4
10 | CCN1CCN(C(=O)N[C@@H](C(=O)N[C@@H]2C(=O)N3C(C(=O)O)=C(CSc4nnnn4C)CS[C@H]23)c2ccc(O)cc2)C(=O)C1=O [CEFOPERAZONE] | Inactive | 0 | < 4 | Inactive | 0.4 | >= 4 | 0 | 0 | Inactive | Inactive | 0.2 | < 4 | Inactive | 0.1 | < 4 | Inactive | 0 | < 4
11 | CO/N=C(\C(=O)N[C@@H]1C(=O)N2C(C(=O)O)=C(COC(C)=O)CS[C@H]12)c1csc(N)n1 [CEFOTAXIME] | Inactive | 0 | < 4 | Active | 4.7 | >= 4 | 1 | 0 | Inactive | Inactive | 2 | < 4 | Inactive | 0 | < 4 | Inactive | 0.3 | < 4
12 | CO[C@@]1(NC(=O)C2SC(=C(C(N)=O)C(=O)O)S2)C(=O)N2C(C(=O)O)=C(CSc3nnnn3C)CS[C@@H]21 (stereo partly specified) [CEFOTETAN] | Inactive | 0 | < 4 | Inactive | 0 | < 4 | 0 | 0 | Inactive | Inactive | 0 | < 4 | Inactive | 0 | < 4 | Inactive | 0.7 | < 4
